Key:
TsH1 [1] = experiment: (§1) Compound was evaluated for the growth inhibition of TsH1 cells in an enriched eagles minimal essential medium, medium lacking asparagine at a concentration of 0.04 mg/mL (0.19 mM); Heavy growth; format: functional, cell-based; conditions: Cricetulus griseus
[2] = target: T1, Asparagine synthetase [glutamine-hydrolyzing] (Rattus norvegicus) (UniProt P49088); experiment: Inhibition of asparagine synthetase from partially purified rat Novikoff hepatoma at a final concentration of 1 mM with
T1 sequence (whole entry): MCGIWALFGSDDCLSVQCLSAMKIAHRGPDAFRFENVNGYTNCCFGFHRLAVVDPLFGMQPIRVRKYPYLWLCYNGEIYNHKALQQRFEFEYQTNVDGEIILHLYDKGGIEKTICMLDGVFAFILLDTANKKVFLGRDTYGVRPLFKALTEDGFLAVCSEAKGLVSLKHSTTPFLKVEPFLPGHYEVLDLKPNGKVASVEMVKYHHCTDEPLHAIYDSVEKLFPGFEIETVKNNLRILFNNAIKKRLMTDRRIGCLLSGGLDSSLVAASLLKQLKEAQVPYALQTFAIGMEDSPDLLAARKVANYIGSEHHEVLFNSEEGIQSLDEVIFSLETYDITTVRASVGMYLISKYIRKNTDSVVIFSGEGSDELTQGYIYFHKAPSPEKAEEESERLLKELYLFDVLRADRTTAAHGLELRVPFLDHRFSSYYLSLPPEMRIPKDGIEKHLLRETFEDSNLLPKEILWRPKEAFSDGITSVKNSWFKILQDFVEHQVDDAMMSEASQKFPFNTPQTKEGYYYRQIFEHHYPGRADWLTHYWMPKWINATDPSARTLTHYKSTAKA

TsH1 [3] = experiment: Compound was evaluated for the growth inhibition of TsH1 cells in an enriched eagles minimal essential medium, complete medium at a concentration of 1.0 mg/mL (4.65 mM); Medium growth; format: functional, cell-based; conditions: Cricetulus griseus
TsH1 [4] = experiment: Compound was evaluated for the growth inhibition of TsH1 cells in an enriched eagles minimal essential medium, medium lacking aspartic acid and asparagine at a concentration of 0.2 mg/mL (0.93 mM); Cells dead; format: functional, cell-based; conditions: Cricetulus griseus
TsH1 [5] = experiment: Compound was evaluated for the growth inhibition of TsH1 cells in an enriched eagles minimal essential medium, medium lacking asparagine at a concentration of 0.2 mg/mL (0.93 mM); Cells dead; format: functional, cell-based; conditions: Cricetulus griseus
TsH1 [6] = experiment: Compound was evaluated for the growth inhibition of TsH1 cells in an enriched eagles minimal essential medium, medium lacking asparagine at a concentration of 0.01 mg/mL (0.04 mM); Heavy growth; format: functional, cell-based; conditions: Cricetulus griseus
TsH1 [7] = experiment: Compound was evaluated for the growth inhibition of TsH1 cells in an enriched eagles minimal essential medium, medium lacking aspartic acid at a concentration of 0.2 mg/mL (0.93 mM); Heavy growth; format: functional, cell-based; conditions: Cricetulus griseus
TsH1 [8] = experiment: Compound was evaluated for the growth inhibition of TsH1 cells in an enriched eagles minimal essential medium, medium lacking asparagine at a concentration of 1.0 mg/mL (4.65 mM); Cells dead; format: functional, cell-based; conditions: Cricetulus griseus
TsH1 [9] = experiment: Compound was evaluated for the growth inhibition of TsH1 cells in an enriched eagles minimal essential medium, complete medium at a concentration of 0.01 mg/mL (0.04 mM); Heavy growth; format: functional, cell-based; conditions: Cricetulus griseus
TsH1 [10] = experiment: Compound was evaluated for the growth inhibition of TsH1 cells in an enriched eagles minimal essential medium, medium lacking aspartic acid and asparagine at a concentration of 0.04 mg/mL (0.19 mM); Heavy growth; format: functional, cell-based; conditions: Cricetulus griseus
TsH1 [11] = experiment: Compound was evaluated for the growth inhibition of TsH1 cells in an enriched eagles minimal essential medium, complete medium at a concentration of 0.04 mg/mL (0.19 mM); Heavy growth; format: functional, cell-based; conditions: Cricetulus griseus
TsH1 [12] = experiment: Compound was evaluated for the growth inhibition of TsH1 cells in an enriched eagles minimal essential medium, medium lacking aspartic acid at a concentration of 1.0 mg/mL (4.65 mM); Medium growth; format: functional, cell-based; conditions: Cricetulus griseus
TsH1 [13] = experiment: as §1; format: functional, cell-based; conditions: Cricetulus griseus; remark: listed apart in the source
TsH1 [14] = experiment: Compound was evaluated for the growth inhibition of TsH1 cells in an enriched eagles minimal essential medium, medium lacking aspartic acid at a concentration of 0.01 mg/mL (0.04 mM); Heavy growth; format: functional, cell-based; conditions: Cricetulus griseus
TsH1 [15] = experiment: Compound was evaluated for the growth inhibition of TsH1 cells in an enriched eagles minimal essential medium, medium lacking aspartic acid and asparagine at a concentration of 0.01 mg/mL (0.04 mM); Heavy growth; format: functional, cell-based; conditions: Cricetulus griseus
TsH1 [16] = experiment: Compound was evaluated for the growth inhibition of TsH1 cells in an enriched eagles minimal essential medium, complete medium at a concentration of 0.2 mg/mL (0.93 mM); Heavy growth; format: functional, cell-based; conditions: Cricetulus griseus
TsH1 [17] = experiment: Compound was evaluated for the growth inhibition of TsH1 cells in an enriched eagles minimal essential medium, medium lacking aspartic acid and asparagine at a concentration of 1.0 mg/mL (4.65 mM); Cells dead; format: functional, cell-based; conditions: Cricetulus griseus
[18] = target: T1, Asparagine synthetase [glutamine-hydrolyzing] (Rattus norvegicus); experiment: Inhibition of asparagine synthetase from partially purified rat Novikoff hepatoma at a final concentration of 2 mM
TsH1 [19] = experiment: Compound was evaluated for the growth inhibition of TsH1 cells in an enriched eagles minimal essential medium, medium lacking aspartic acid and asparagine at a concentration of 0.04 mg/mL (0.17 mM); Heavy growth; format: functional, cell-based; conditions: Cricetulus griseus
TsH1 [20] = experiment: Compound was evaluated for the growth inhibition of TsH1 cells in an enriched eagles minimal essential medium, complete medium at a concentration of 0.04 mg/mL (0.17 mM); Heavy growth; format: functional, cell-based; conditions: Cricetulus griseus
TsH1 [21] = experiment: Compound was evaluated for the growth inhibition of TsH1 cells in an enriched […] at a concentration of 0.2 mg/mL (0.87 mM); Heavy growth; format: functional, cell-based; conditions: Cricetulus griseus
TsH1 [22] = experiment: Compound was evaluated for the growth inhibition of TsH1 cells in an enriched eagles minimal essential medium, complete medium at a concentration of 1.0 mg/mL (4.34 mM); Heavy growth; format: functional, cell-based; conditions: Cricetulus griseus
TsH1 [23] = experiment: Compound was evaluated for the growth inhibition of TsH1 cells in an enriched eagles minimal essential medium, complete medium at a concentration of 0.2 mg/mL (0.87 mM); Heavy growth; format: functional, cell-based; conditions: Cricetulus griseus
TsH1 [24] = experiment: Compound was evaluated for the growth inhibition of TsH1 cells in an enriched eagles minimal essential medium, medium lacking asparagine at a concentration of 1.0 mg/mL (4.34 mM); Heavy growth; format: functional, cell-based; conditions: Cricetulus griseus
TsH1 [25] = experiment: Compound was evaluated for the growth inhibition of TsH1 cells in an enriched eagles minimal essential medium, medium lacking asparagine at a concentration of 0.04 mg/mL (0.17 mM); Heavy growth; format: functional, cell-based; conditions: Cricetulus griseus
TsH1 [26] = experiment: Compound was evaluated for the growth inhibition of TsH1 cells in an enriched eagles minimal essential medium, medium lacking aspartic acid and asparagine at a concentration of 1.0 mg/mL (4.34 mM); Heavy growth; format: functional, cell-based; conditions: Cricetulus griseus
TsH1 [27] = experiment: Compound was evaluated for the growth inhibition of TsH1 cells in an enriched eagles minimal essential medium, medium lacking aspartic acid and asparagine at a concentration of 0.01 mg/mL (0.01 mM); Heavy growth; format: functional, cell-based; conditions: Cricetulus griseus
TsH1 [28] = experiment: Compound was evaluated for the growth inhibition of TsH1 cells in an enriched eagles minimal essential medium, complete medium at a concentration of 0.01 mg/mL (0.01 mM); Heavy growth; format: functional, cell-based; conditions: Cricetulus griseus
TsH1 [29] = experiment: Compound was evaluated for the growth inhibition of TsH1 cells in an enriched eagles minimal essential medium, medium lacking aspartic acid at a concentration of 0.01 mg/mL (0.01 mM); Heavy growth; format: functional, cell-based; conditions: Cricetulus griseus
TsH1 [30] = experiment: Compound was evaluated for the growth inhibition of TsH1 cells in an enriched eagles minimal essential medium, cmedium lacking aspartic acid at a concentration of 0.04 mg/mL (0.17 mM); Heavy growth; format: functional, cell-based; conditions: Cricetulus griseus
TsH1 [31] = experiment: Compound was evaluated for the growth inhibition of TsH1 cells in an enriched eagles minimal essential medium, medium lacking aspartic acid at a concentration of 1.0 mg/mL (4.34 mM); Heavy growth; format: functional, cell-based; conditions: Cricetulus griseus
TsH1 [32] = experiment: Compound was evaluated for the growth inhibition of TsH1 cells in an enriched eagles minimal essential medium, medium lacking aspartic acid and asparagine at a concentration of 0.2 mg/mL (0.87 mM); Heavy growth; format: functional, cell-based; conditions: Cricetulus griseus
TsH1 [33] = experiment: Compound was evaluated for the growth inhibition of TsH1 cells in an enriched eagles minimal essential medium, medium lacking asparagine at a concentration of 0.01 mg/mL (0.01 mM); Heavy growth; format: functional, cell-based; conditions: Cricetulus griseus
TsH1 [34] = experiment: Compound was evaluated for the growth inhibition of TsH1 cells in an enriched eagles minimal essential medium, medium lacking asparagine at a concentration of 0.2 mg/mL (0.87 mM); Heavy growth; format: functional, cell-based; conditions: Cricetulus griseus
[35] = target: T1, Asparagine synthetase [glutamine-hydrolyzing] (Rattus norvegicus); experiment: Inhibition of asparagine synthetase from partially purified rat Novikoff hepatoma at a final concentration of 1 mM

Compound: NC(CNC(=O)C(Cl)Cl)C(=O)O (stereo not given)
- Growth inhibition (TsH1 [1]): Heavy Growth
- inhibition [2]: 18.7%
- Growth inhibition (TsH1 [3]): Medium Growth
- Growth inhibition (TsH1 [4]): Not toxic
- Growth inhibition (TsH1 [5]): Not toxic
- Growth inhibition (TsH1 [6]): Heavy Growth
- Growth inhibition (TsH1 [7]): Heavy Growth
- Growth inhibition (TsH1 [8]): Not toxic
- Growth inhibition (TsH1 [9]): Heavy Growth
- Growth inhibition (TsH1 [10]): Heavy Growth
- Growth inhibition (TsH1 [11]): Heavy Growth
- Growth inhibition (TsH1 [12]): Medium Growth
- Growth inhibition (TsH1 [13]): Heavy Growth
- Growth inhibition (TsH1 [14]): Heavy Growth
- Growth inhibition (TsH1 [15]): Heavy Growth
- Growth inhibition (TsH1 [16]): Heavy Growth
- Growth inhibition (TsH1 [17]): Not toxic

Compound: NCC(N)C(=O)O (stereo not given)
- inhibition [18]: 0%

Compound: CCOC(=O)/C=C/C(=O)NCC(N)C(=O)O (stereo not given)
- Growth inhibition (TsH1 [19]): Heavy Growth
- Growth inhibition (TsH1 [20]): Heavy Growth
- Growth inhibition (TsH1 [21]): Heavy Growth
- Growth inhibition (TsH1 [22]): Heavy Growth
- Growth inhibition (TsH1 [23]): Heavy Growth
- Growth inhibition (TsH1 [24]): Heavy Growth
- Growth inhibition (TsH1 [25]): Heavy Growth
- Growth inhibition (TsH1 [26]): Heavy Growth
- Growth inhibition (TsH1 [27]): Heavy Growth
- Growth inhibition (TsH1 [28]): Heavy Growth
- Growth inhibition (TsH1 [29]): Heavy Growth
- Growth inhibition (TsH1 [30]): Heavy Growth
- Growth inhibition (TsH1 [31]): Heavy Growth
- Growth inhibition (TsH1 [32]): Heavy Growth
- Growth inhibition (TsH1 [33]): Heavy Growth
- Growth inhibition (TsH1 [34]): Heavy Growth
- inhibition [35]: 37.4%

— ChEMBL document CHEMBL1121869, “Potential inhibitors of L-asparagine biosynthesis. 5. Electrophilic amide analogues of (S)-2,3-diaminopropionic acid” (J Med Chem, 1981)
